Data published in US5340833A, “Urokinase inhibitors” (Eisai Co., Ltd., priority 1992, dated 1994).
Structures can show the parent of a compound that is named as a salt.

Assays:
Type in all cases: biochemical
[1] = biological target: T1, human high molecular weight urokinase (Homo sapiens, UniProt P00749); test: Urokinase Direct Assay; conditions: inhibitor concentration of 1 mM; for residual urokinase activity at 1000 µM: read-out: uPA Direct: percentage of residual urokinase activity relative to inhibitor-free controls, heading: uPA Direct: percentage of residual urokinase activity relative to inhibitor-free controls
T1 construct: human high molecular weight urokinase; purchased American Diagnostica, Greenwich, Conn
Description: (i) A direct chromogenic assay in which urokinase cleaves a synthetic tripeptide p-nitroanilide (pNA) urokinase substrate.
Incubations were carried out at 37° C. for approximately 2 hours or until adequate yellow color developed. Color was quantitated by measuring absorbance at 405 nm (A405) using a Titertek Multiskan MCC/340 MK II microtiter plate spectrophotometer.

[2] = biological target: T2, human plasmin (Homo sapiens, UniProt P00747); test: Plasmin Assay; conditions: read-out: PLASMIN IC50
T2 construct: plasmin, the potent general protease produced by cleavage of plasminogen by either urokinase or tPA; purchased American Diagnostica
Description: (v) A chromogenic pNA assay for plasmin, the potent general protease produced by cleavage of plasminogen by either urokinase or tPA. Although urokinase initiates cellular invasiveness by generating plasmin, the additional importance of plasmin in tPA-mediated fibrinolysis dictates that plasmin itself should be free from inhibition by urokinase inhibitors designed as anti-invasiveness agents. […] All other assay conditions, as well as methods of color quantitation, were carried out as described above for the urokinase direct assay.

[3] = biological target: T3, human two-chain tPA (Homo sapiens, UniProt P00750); test: tPA Indirect (Plasminogen-Linked) Assay (tPA Direct Assay result where lower); conditions: tPA Indirect Plasminogen-Linked Assay; in rare cases direct assay result if lower; read-out: tPA IC50
T3 construct: human two-chain tPA was substituted for urokinase; purchased American Diagnostica
From the text: (iv) Both direct and plasminogen-linked pNA assays for tPA, the other mammalian plasminogen activator and the key initiator of blood clot dissolution or fibrinolysis. Since urokinase and tPA share an absolute specificity for the same peptide bond in plasminogen, urokinase inhibitors designed to block cellular invasiveness must be highly specific for urokinase over tPA in order to avoid serious thrombotic side effects secondary to undesired blockage of normal fibrinolysis. […] Spectrozyme tPA®, American Diagnostica) was substituted for urokinase substrate.

T2 sequence (P00747 581-810 limits assumed): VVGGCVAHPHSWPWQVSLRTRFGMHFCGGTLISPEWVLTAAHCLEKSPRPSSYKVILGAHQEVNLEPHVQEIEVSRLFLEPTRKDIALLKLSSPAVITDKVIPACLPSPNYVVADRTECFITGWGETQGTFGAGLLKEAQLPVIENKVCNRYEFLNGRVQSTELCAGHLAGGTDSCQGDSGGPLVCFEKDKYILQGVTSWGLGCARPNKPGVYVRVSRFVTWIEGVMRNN
T2 sequence (P00747 97-580 limits assumed): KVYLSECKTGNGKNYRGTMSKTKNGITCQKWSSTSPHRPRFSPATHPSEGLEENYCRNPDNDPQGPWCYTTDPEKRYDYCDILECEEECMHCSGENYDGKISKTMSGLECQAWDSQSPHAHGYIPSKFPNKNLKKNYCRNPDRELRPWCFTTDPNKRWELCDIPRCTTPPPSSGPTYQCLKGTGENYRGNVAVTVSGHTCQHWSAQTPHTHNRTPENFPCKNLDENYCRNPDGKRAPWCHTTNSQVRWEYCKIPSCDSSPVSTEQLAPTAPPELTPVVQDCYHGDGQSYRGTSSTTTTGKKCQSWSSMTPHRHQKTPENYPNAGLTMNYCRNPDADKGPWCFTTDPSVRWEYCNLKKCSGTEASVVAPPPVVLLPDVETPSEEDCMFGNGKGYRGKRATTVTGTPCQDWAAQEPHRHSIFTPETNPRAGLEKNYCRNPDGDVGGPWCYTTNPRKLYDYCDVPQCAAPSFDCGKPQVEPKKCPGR
T3 sequence (P00750 311-562 limits assumed): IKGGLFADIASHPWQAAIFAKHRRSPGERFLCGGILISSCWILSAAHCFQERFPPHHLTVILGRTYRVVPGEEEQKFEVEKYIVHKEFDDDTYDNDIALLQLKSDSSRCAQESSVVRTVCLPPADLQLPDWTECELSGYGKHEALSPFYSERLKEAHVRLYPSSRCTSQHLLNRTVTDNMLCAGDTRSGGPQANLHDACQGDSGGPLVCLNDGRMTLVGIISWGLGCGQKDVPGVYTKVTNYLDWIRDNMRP
T3 sequence (P00750 36-310 limits assumed): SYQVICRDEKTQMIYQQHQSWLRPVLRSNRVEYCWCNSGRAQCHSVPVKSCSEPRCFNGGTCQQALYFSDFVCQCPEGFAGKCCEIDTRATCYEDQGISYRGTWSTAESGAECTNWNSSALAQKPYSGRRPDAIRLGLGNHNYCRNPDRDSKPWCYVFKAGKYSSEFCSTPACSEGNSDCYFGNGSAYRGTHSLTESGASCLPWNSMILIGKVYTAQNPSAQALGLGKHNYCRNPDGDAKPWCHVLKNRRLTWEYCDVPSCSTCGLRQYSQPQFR

| Compound | residual urokinase activity at 1000 µM [1] | further results |
| --- | --- | --- |
| 4-(7-Amidino-E-hept-1-enyl)benzo[b]thiophene-2-carboxamidine bishydrochloride [Compound 33] | – | uPA Direct: percentage of residual urokinase activity relative to inhibitor-free controls [1]: 1.3% |
| CCC(C)Cc1cccc2sc(C(=N)N)cc12 (racemic) [Compound 11, 4-([R/S]-2-Methylbutyl)benzo[b]thiophene-2-carboxamidine hydrochloride] | 2.3% | – |
| N=C(N)c1cc2c(C3CCCO3)cccc2s1 (racemic) [Compound 61, 4-([R,S]-Tetrahydrofuran-2-yl)benzo[b]thiophene-2-carboxamidine hydrochloride] | 0.6% | – |
| CCC(C)Cc1ccc2sc(C(=N)N)cc2c1 (racemic) [Compound 109, 5-([R/S]-2-Methylbutyl)benzo[b]thiophene-2-carboxamidine hydrochloride] | 6.6% | – |
| N=C(N)c1cc2c(F)cccc2s1 [Compound 2, 4-Fluorobenzo[b]thiophene-2-carboxamidine hydrochloride] | 7.2% | – |
| N=C(N)c1cc2c(Cl)cccc2s1 [Compound 3, 4-Chlorobenzo[b]thiophene-2-carboxamidine hydrochloride] | 3% | – |
| N=C(N)c1cc2c(Br)cccc2s1 [Compound 4, 4-Bromobenzo[b]thiophene-2-carboxamidine hydrochloride] | 0.8% | – |
| Cc1cccc2sc(C(=N)N)cc12 [Compound 6, 4-Methylbenzo[b]thiophene-2-carboxamidine hydrochloride] | – | IC50 [2]: 881 µM; IC50 [3]: 478 µM |
| CC(C)c1cccc2sc(C(=N)N)cc12 [Compound 8, 4-(1-Methylethyl)benzo[b]thiophene-2-carboxamidine hydrochloride] | 0.9% | – |
| N=C(N)c1cc2c(CCC3CC3)cccc2s1 [Compound 14, 4-(2-Cyclopropylethyl)benzo[b]thiophene-2-carboxamidine hydrochloride] | 0.54% | – |
| N=C(N)c1cc2c(CCc3ccccc3)cccc2s1 [Compound 15, 4-(2-Phenylethyl)benzo[b]thiophene-2-carboxamidine hydrochloride] | 0.35% | – |
| CC(c1ccccc1)c1cccc2sc(C(=N)N)cc12 (stereo not shown) [Compound 16, 4-(1-Phenylethyl)benzo[b]thiophene-2-carboxamidine hydrochloride] | 1.4% | – |
| C=C(C)c1cccc2sc(C(=N)N)cc12 [Compound 18, 4-(1-Methylethenyl)benzo[b]thiophene-2-carboxamidine hydrochloride] | 1.3% | – |
| CCC=Cc1cccc2sc(C(=N)N)cc12 [Compound 20, 4-(E/Z-But-1-enyl)benzo[b]thiophene-2-carboxamidine hydrochloride] | 0.8% | – |
| CCC(C)=Cc1cccc2sc(C(=N)N)cc12 [Compound 21, 4-(E/Z-2-Methylbut-1-enyl)benzo[b]thiophene-2-carboxamidine hydrochloride] | 1.1% | – |
| CCC(/C=C/c1cccc2sc(C(=N)N)cc12)CC [Compound 28, 4-(E-3-ethylpent-1-enyl)benzo[b]thiophene-2-carboxamidine hydrochloride] | 0.46% | – |
| CCCCCCCC/C=C/c1cccc2sc(C(=N)N)cc12 [Compound 31, 4-(E-Dec-1-enyl)benzo[b]thiophene-2-carboxamidine hydrochloride] | 5.2% | – |
| N=C(N)c1cc2c(/C=C/CCCO)cccc2s1 [Compound 32, 4-(E-5-Hydroxypent-1-enyl)benzo[b]thiophene-2-carboxamidine hydrochloride] | 0.67% | – |

| Compound | residual urokinase activity at 1000 µM [1] | further results |
| --- | --- | --- |
| N=C(N)c1cc2c(C=CC3CC3)cccc2s1 [Compound 34, 4-(E/Z-2-Cyclopropylethenyl)benzo[b]thiophene-2-carboxamidine. hydrochloride] | 0.46% | – |
| N=C(N)c1cc2c(C=C(Br)Br)cccc2s1 [Compound 38, 4-(2,2-Dibromoethenyl)benzo[b]thiophene-2-carboxamidine hydrochloride] | 4.8% | – |
| CC(C)(O)C#Cc1cccc2sc(C(=N)N)cc12 [Compound 42, 4-(3-Hydroxy-3-methylbut-1-ynyl)benzo[b]thiophene-2-carboxamidine hydrochloride] | 0.6% | – |
| COc1ccc(-c2cccc3sc(C(=N)N)cc23)cc1 [Compound 45, 4-(4-Methoxyphenyl)benzo[b]thiophene-2-carboxamidine hydrochloride] | 6% | – |
| N=C(N)c1cc2c(-c3ccc([N+](=O)[O-])cc3)cccc2s1 [Compound 46, 4-(4-Nitrophenyl)benzo[b]thiophene-2-carboxamidine hydrochloride] | 1% | – |
| N=C(N)c1ccc(-c2cccc3sc(C(=N)N)cc23)cc1 [Compound 47, 4-(4-Carboxamidinophenyl)benzo[b]thiophene-2-carboxamidine bis-hydrochloride] | 7.6% | – |
| N=C(N)c1cc2c(-c3cccc4sc(C(=N)N)cc34)cccc2s1 [Compound 52, Bis-(2-carboxamidinobenzo[b]thien-4-yl) bis-hydrochloride] | 2.7% | – |
| N=C(N)c1cc2c(C(F)(F)F)cccc2s1 [Compound 54, 4-(Trifluoromethyl)benzo[b]thiophene-2-carboxamidine hydrochloride] | 2.4% | – |
| N=C(N)c1cc2c(C=O)cccc2s1 [Compound 55, 4-Formylbenzo[b]thiophene-2-carboxamidine hydrochloride] | 4.8% | – |
| COc1cccc2sc(C(=N)N)cc12 [Compound 57, 4-Methoxybenzo[b]thiophene-2-carboxamidine hydrochloride] | 12% | – |
| C=CCSc1cccc2sc(C(=N)N)cc12 [Compound 59, 4-(Prop-2-en-1-ylthio)benzo[b]thiophene-2-carboxamidine hydrochloride] | 1.1% | – |
| N=C(N)c1cc2c(SCc3ccccc3)cccc2s1 [Compound 60, 4-(Benzylthio)benzo[b]thiophene-2-carboxamidine hydrochloride] | 1.3% | – |
| N=C(N)c1cc2c(N3CCOCC3)cccc2s1 [Compound 62, 4-(1-Morpholino)benzo[b]thiophene-2-carboxamidine hydrochloride] | 3.6% | – |
| N=C(N)c1cc2c(C#Cc3ccccc3)cccc2s1 [Compound 76, 4-(Phenylethynyl)benzo[b]thiophene-2-carboxamidine hydrochloride] | 1.1% | – |
| N=C(N)c1cc2c(-c3ccc(-c4ccc5c(c4)OCO5)o3)cccc2s1 [Compound 79, 4-[5-(Benzo-1,3-dioxolan-5-yl)fur-2-yl]benzo[b]thiophene-2-carboxamidine hydrochloride] | 1.5% | – |
| N=C(N)c1cc2cc(F)ccc2s1 [Compound 101, 5-Fluorobenzo[b]thiophene-2-carboxamidine hydrochloride] | 12.7% | – |
| N=C(N)c1cc2cc(Cl)ccc2s1 [Compound 102, 5-Chlorobenzo[b]thiophene-2-carboxamidine hydrochloride] | 2.9% | – |
| Cc1ccc2sc(C(=N)N)cc2c1 [Compound 105, 5-Methylbenzo[b]thiophene-2-carboxamidine hydrochloride] | 3.4% | – |
